From patent US9458141B2, “Low molecular weight thyroid stimulating hormone receptor (TSHR) agonists” (The United States of America, as represented by the …, priority 2008, dated 2016)
Read-outs that look alike come from different tables or passages of the source.

Biological target: T1, human TSHR (Homo sapiens, UniProt P16473)
T1 construct: expressed in transfected cells
Assay: Homogeneous Time Resolved Fluorescence (HTRF) cAMP assay, TSHR cell line
Type: cell-based
Settings: for Maximum Activity compared to TSH: 100% activity = response of 30 mU/ml TSH, 0% = DMSO control, in %; for AC50: HTRF cAMP, TSHR cell line, 30 minute incubation; for Emax: read-out: Maximum Activity compared to TSH, 100% activity = response of 30 mU/ml TSH, 0% = DMSO control; call rule not given here

T1 sequence (P16473 21-764): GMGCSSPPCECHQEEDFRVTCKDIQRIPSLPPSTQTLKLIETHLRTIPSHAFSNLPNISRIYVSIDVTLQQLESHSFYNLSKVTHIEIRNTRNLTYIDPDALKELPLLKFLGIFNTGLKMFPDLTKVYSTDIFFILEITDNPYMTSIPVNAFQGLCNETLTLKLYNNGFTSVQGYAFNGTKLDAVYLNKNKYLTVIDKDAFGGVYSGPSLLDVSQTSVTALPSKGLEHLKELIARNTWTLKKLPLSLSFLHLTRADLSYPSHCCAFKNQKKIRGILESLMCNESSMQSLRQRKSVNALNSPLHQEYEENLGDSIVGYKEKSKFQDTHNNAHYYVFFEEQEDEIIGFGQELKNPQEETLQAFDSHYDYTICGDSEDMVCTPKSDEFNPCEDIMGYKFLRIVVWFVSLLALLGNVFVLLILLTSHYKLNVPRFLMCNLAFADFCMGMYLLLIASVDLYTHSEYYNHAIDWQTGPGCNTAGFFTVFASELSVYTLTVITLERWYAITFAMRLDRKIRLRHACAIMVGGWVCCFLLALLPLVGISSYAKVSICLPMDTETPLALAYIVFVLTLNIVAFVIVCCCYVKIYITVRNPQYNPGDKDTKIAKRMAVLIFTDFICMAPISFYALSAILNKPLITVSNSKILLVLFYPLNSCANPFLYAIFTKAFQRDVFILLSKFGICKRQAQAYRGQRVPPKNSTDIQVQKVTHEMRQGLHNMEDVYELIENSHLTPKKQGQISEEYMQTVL

| Maximum Activity compared to TSH | AC50 (read-out: AC50) [µM] | Emax [%] | AC50 | SMILES |
| --- | --- | --- | --- | --- |
| 66.81 | 39.8 |  |  | COc1ccc(C2Nc3ccccc3C(=O)N2Cc2ccccn2)cc1COc1ccc(NC(C)=O)cc1 (stereo not drawn) [Structure 115] |
|  | 35.5 | 54.6 |  | COc1ccc(-c2nc3ccccc3c(=O)n2Cc2ccc(CNC(=O)CO)cc2)cc1COc1ccc(NC(C)=O)cc1 [Structure 116] |
| 87.19 | 44.7 |  |  | COc1ccc(CN(Cc2ccccc2)C(=O)c2ccncc2)cc1COc1ccc(NC(C)=O)cc1 [Structure 117] |
| 96.91 | 28.2 |  |  | COc1ccc(C(=O)N(Cc2ccccc2)Cc2ccco2)c(O)c1 [Structure 118] |
| 56.31 | 14.1 |  |  | COc1ccc(C2Nc3ccc(Cl)cc3C(=O)N2Cc2ccccc2)cc1COc1ccc(NC(C)=O)cc1 (stereo not drawn) [Structure 119] |
|  | 15.8 | 40.5 |  | COc1ccc(C(=O)N(Cc2ccccc2)Cc2ccccc2)cc1COc1ccc(NC(C)=O)cc1 [Structure 120] |
| 38.00 | 39.8 |  |  | COc1ccc(C(=O)N(Cc2ccco2)Cc2ccco2)c(O)c1 [Structure 121] |
| 61.90 | 50.1 |  |  | COc1ccc(C(=O)N(Cc2ccco2)Cc2ccco2)c(O)c1 [Structure 122] |
| 83.18 | 14.1 |  |  | COc1ccc(C2Nc3ccc(Cl)cc3C(=O)N2Cc2ccccc2)cc1COc1ccc(NC(C)=O)cc1 (stereo not drawn) [Structure 123] |
| 62.73 | 31.6 |  |  | COc1ccc(CN(Cc2ccccc2)C(=O)c2ccc(OC)cc2O)cc1 [Structure 124] |
|  | 39.8 | 56.4 |  | COc1ccc(C2Nc3ccccc3C(=O)N2Cc2ccncc2)cc1COc1ccc(NC(C)=O)cc1 (stereo not drawn) [Structure 125] |
| 36.00 | 17.8 |  |  | COc1ccc(-c2nc3ccccc3c(=O)n2Cc2ccc(CNC(=O)CO)cc2)cc1COc1ccc(NC(C)=O)cc1 [Structure 126] |
|  | 14.1 | 38 |  | COc1ccc(C2Nc3ccccc3C(=O)N2Cc2ccccc2)cc1COc1cccc(C)c1 (stereo not drawn) [Structure 127] |
| 69.13 | 39.8 |  |  | COc1ccc(C2Nc3ccccc3C(=O)N2Cc2ccc(CNC(=O)CO)cc2)cc1COc1ccc(NC(C)=O)cc1 (stereo not drawn) [Structure 128] |
| 51.77 | 28.2 |  |  | O=C(c1ccccc1O)N(Cc1ccccc1)Cc1ccccc1 [Structure 129] |
| 53.70 | 50.1 |  |  | COc1ccc(CN(Cc2ccccc2)C(=O)COC(C)=O)cc1COc1ccc(NC(C)=O)cc1 [Structure 130] |
| 99.01 | 35.5 |  |  | COc1ccc(C(=O)N(Cc2ccccc2)Cc2ccccc2)c(O)c1 [Structure 131] |

| Maximum Activity compared to TSH | AC50 (read-out: AC50) [µM] | Emax [%] | AC50 | SMILES |
| --- | --- | --- | --- | --- |
| 44.00 | 31.6 |  |  | COc1ccc(C2Nc3ccccc3C(=O)N2Cc2ccncc2)cc1COc1ccc(NC(C)=O)cc1 (stereo not drawn) [Structure 132] |
|  | 31.6 | 55.3 |  | O=C(c1ccccc1O)N(Cc1cccs1)Cc1cccs1 [Structure 133] |
| 30.50 | 8.91 |  |  | COc1ccc(CNc2ccccc2C(=O)NCc2ccccc2)cc1COc1ccc(NC(C)=O)cc1 [Structure 134] |
| 48.07 |  |  |  | COc1ccc(CN(Cc2ccccc2)C(=O)Nc2ccccc2)cc1COc1ccc(NC(C)=O)cc1 [Structure 135] |
| 37.00 | 28.2 |  |  | COc1ccc(CN(Cc2ccccc2)C(=O)c2ccc(OC)cc2O)cc1 [Structure 136] |
|  |  |  | inactive | COc1ccc(C2NC(=O)c3ccccc3N2)cc1COc1ccc(NC(C)=O)cc1 (stereo not drawn) [Structure 137] |
|  | 20 | 31.5 |  | COc1ccc(C2Nc3ccccc3C(=O)N2C2CCCC2)cc1COc1ccc(NC(C)=O)cc1 (stereo not drawn) [Structure 138] |
|  |  |  | inactive | COc1ccc(C2Nc3ccccc3C(=O)N2Cc2ccccc2C)cc1COc1ccc(NC(C)=O)cc1 (stereo not drawn) [Structure 139] |
|  |  |  | inactive | COc1ccc(C2Nc3ccccc3C(=O)N2Cc2ccccc2)cc1COc1ccc(Cl)cc1 (stereo not drawn) [Structure 140] |
|  |  |  | inactive | COc1ccc(C2Nc3ccccc3C(=O)N2Cc2ccco2)cc1COc1c(C)cccc1C (stereo not drawn) [Structure 141] |
|  | 20 | 34 |  | O=C(c1ccccc1O)N(Cc1ccccc1)Cc1cccs1 [Structure 142] |
|  |  |  | inactive | CC(C)c1ccc(C2C3=C(CC(c4ccco4)CC3=O)Nc3nc(C(F)(F)F)nn32)cc1 (stereo not drawn) [Structure 143] |
|  |  |  | inactive | CC(=O)Nc1ccc(OCc2cccc(C3Nc4ccccc4C(=O)N3Cc3ccco3)c2)cc1 (stereo not drawn) [Structure 144] |
|  |  |  | inactive | COc1ccc(CN(Cc2ccccc2)C(=O)CN2CCN(C)CC2)cc1COc1ccc(NC(C)=O)cc1 [Structure 145] |
|  |  |  | inactive | COc1ccc(C2Nc3ccccc3C(=O)N2CCCN(C)C)cc1COc1ccc(NC(C)=O)cc1 (stereo not drawn) [Structure 146] |
|  |  |  | inactive | O=C1CC(c2ccco2)CC2=C1C(c1cccnc1)n1nc(C(F)(F)F)nc1N2 (stereo not drawn) [Structure 147] |
|  |  |  | inactive | O=C1c2ccccc2NC(c2cc(Br)c3c(c2)OCO3)N1Cc1ccco1 (stereo not drawn) [Structure 148] |

The remaining lines, values behind:

| SMILES | Maximum Activity compared to TSH | AC50 (read-out: AC50) [µM] | Emax [%] | AC50 |
| --- | --- | --- | --- | --- |
| COc1ccc(C2Nc3ccccc3C(=O)N2Cc2cccc3ccccc23)cc1COc1ccc(NC(C)=O)cc1 (stereo not drawn) [Structure 86] | 51.11 | 6.31 |  |  |
| COc1ccc(OCc2cc(C3Nc4ccccc4C(=O)N3Cc3ccccc3)ccc2OC)cc1 (stereo not drawn) [Structure 87] |  | 3.98 | 38 |  |
| COc1ccc(C2Nc3ccccc3C(=O)N2Cc2ccccc2C(F)(F)F)cc1COc1ccc(NC(C)=O)cc1 (stereo not drawn) [Structure 88] |  | 5.62 | 30.5 |  |
| COc1ccc(C2Nc3ccccc3C(=O)N2Cc2ccco2)cc1COc1ccc(NC(C)=O)cc1 (stereo not drawn) [Structure 89] | 129.12 | 25.1 |  |  |
| COc1ccc([C@H]2[C@H](c3ccccc3)C(=O)N2Cc2ccccc2)cc1COc1ccc(NC(C)=O)cc1 [Structure 90] | 110.89 |  |  |  |
| COc1ccc(C2Nc3ccccc3C(=O)N2Cc2ccco2)cc1COc1ccc(NC(C)=O)cc1 (stereo not drawn) [Structure 91] | 88.07 | 15.8 |  |  |
| COc1ccc(C(=O)N(Cc2ccccc2)Cc2cccs2)c(O)c1 [Structure 92] | 133.48 | 31.6 |  |  |
| COc1ccc(C(=O)N(Cc2ccccc2)Cc2cccs2)c(O)c1 [Structure 93] | 111.66 | 28.2 |  |  |
| COc1ccc(C2Nc3ccccc3C(=O)N2Cc2ccco2)cc1COc1ccc(NC(C)=O)cc1 (stereo not drawn) [Structure 94] | 160.25 | 25.1 |  |  |
| COc1ccc(-c2nc3ccccc3c(=O)n2Cc2ccccc2)cc1COc1ccc(NC(C)=O)cc1 [Structure 95] | 138.18 | 12.6 |  |  |
| COc1ccc(CN(Cc2ccccc2)C(=O)c2ccco2)cc1COc1ccc(NC(C)=O)cc1 [Structure 96] |  | 14.1 | 125 |  |
| COc1ccc(-c2nc3ccccc3c(=O)n2Cc2ccccc2)cc1COc1ccc(NC(C)=O)cc1 [Structure 97] | 132.18 | 15.8 |  |  |
| COc1ccc(CN(Cc2ccccc2)C(=O)c2ccccc2)cc1COc1ccc(NC(C)=O)cc1 [Structure 98] | 140.53 | 14.1 |  |  |
| COc1ccc(C2Nc3ccccc3C(=O)N2Cc2cccnc2)cc1COc1ccc(NC(C)=O)cc1 (stereo not drawn) [Structure 99] |  | 35.5 | 104 |  |
| COc1ccc(CN(Cc2ccccc2)C(=O)c2ccccc2N)cc1COc1ccc(NC(C)=O)cc1 [Structure 100] | 190.35 | 35.5 |  |  |
| COc1ccc(C(=O)N(Cc2ccco2)Cc2cccs2)c(O)c1 [Structure 101] | 128.51 | 28.2 |  |  |
| COc1ccc(C(=O)N(Cc2ccccc2)Cc2ccco2)c(O)c1 [Structure 102] |  | 15.8 | 88.7 |  |
| COc1ccc(C(=O)N(Cc2cccs2)Cc2cccs2)c(O)c1 [Structure 103] | 106.72 | 15.8 |  |  |
| COc1ccc(CN(Cc2ccccc2)C(=O)c2ccc(O)cc2)cc1COc1ccc(NC(C)=O)cc1 [Structure 104] | 122.31 | 39.8 |  |  |
| COc1ccc(C2Nc3ccc(NC(C)=O)cc3C(=O)N2Cc2ccccc2)cc1COc1ccc(NC(C)=O)cc1 (stereo not drawn) [Structure 105] |  | 17.8 | 126 |  |
| COc1ccc(C2Nc3cccc(OC)c3C(=O)N2Cc2ccccc2)cc1COc1ccc(NC(C)=O)cc1 (stereo not drawn) [Structure 106] |  | 17.8 | 45.4 |  |
| COc1ccc(C2Nc3ccccc3C(=O)N2Cc2ccc(CNC(=O)CO)cc2)cc1COc1ccc(NC(C)=O)cc1 (stereo not drawn) [Structure 107] |  | 31.6 | 63.7 |  |
| COc1ccc(C(=O)N(Cc2cccs2)Cc2cccs2)c(O)c1 [Structure 108] | 63.12 | 15.8 |  |  |
| COc1ccc(CNc2ccccc2C(=O)NCc2ccccc2)cc1COc1ccc(NC(C)=O)cc1 [Structure 109] |  | 17.8 | 47.5 |  |
| COc1ccc(-c2nc3ccc(NC(C)=O)cc3c(=O)n2Cc2cccc(Cl)c2)cc1COc1ccc(NC(C)=O)cc1 [Structure 110] | 48.00 | 22.4 |  |  |
| COc1ccc(C2Nc3ccccc3C(=O)N2Cc2cccnc2)cc1COc1ccc(NC(C)=O)cc1 (stereo not drawn) [Structure 111] | 98.46 | 35.5 |  |  |
| COc1ccc(C(=O)N(Cc2ccco2)Cc2cccs2)c(O)c1 [Structure 112] | 60.92 | 15.8 |  |  |
| O=C(c1ccccc1O)N(Cc1ccco1)Cc1cccs1 [Structure 113] |  | 39.8 | 63.8 |  |
| COc1ccc(C(=O)N(Cc2ccccc2)Cc2ccccc2)c(O)c1 [Structure 114] | 51.15 | 25.1 |  |  |
